Among the data in ChEMBL document CHEMBL4373688 (Medchemcomm, 2019) are IC50 and Ratio IC50 values, retold here.

In assay [1] the target is Fibroblast growth factor receptor 3 (Homo sapiens, UniProt P22607). Kind of assay: biochemical. The assay is classed as cell-based, Sf9.
Description: Inhibition of wild type His-tagged human FGFR3 (455 to 763 residues) expressed in Sf9 insect cells by ELISA
The target in assay [2] is Vascular endothelial growth factor receptor 2 (Homo sapiens, UniProt P35968).
Description: Inhibition of human VEGFR2 (805 to 1171 residues) by ELISA
For a further assay, the species on record is Homo sapiens. Briefly: Selectivity ratio of IC50 for wild type His-tagged human FGFR3 (455 to 763 residues) expressed in Sf9 insect cells to IC50 for human VEGFR2 (805 to 1171 residues).

Chain of Fibroblast growth factor receptor 3 (P22607 whole entry): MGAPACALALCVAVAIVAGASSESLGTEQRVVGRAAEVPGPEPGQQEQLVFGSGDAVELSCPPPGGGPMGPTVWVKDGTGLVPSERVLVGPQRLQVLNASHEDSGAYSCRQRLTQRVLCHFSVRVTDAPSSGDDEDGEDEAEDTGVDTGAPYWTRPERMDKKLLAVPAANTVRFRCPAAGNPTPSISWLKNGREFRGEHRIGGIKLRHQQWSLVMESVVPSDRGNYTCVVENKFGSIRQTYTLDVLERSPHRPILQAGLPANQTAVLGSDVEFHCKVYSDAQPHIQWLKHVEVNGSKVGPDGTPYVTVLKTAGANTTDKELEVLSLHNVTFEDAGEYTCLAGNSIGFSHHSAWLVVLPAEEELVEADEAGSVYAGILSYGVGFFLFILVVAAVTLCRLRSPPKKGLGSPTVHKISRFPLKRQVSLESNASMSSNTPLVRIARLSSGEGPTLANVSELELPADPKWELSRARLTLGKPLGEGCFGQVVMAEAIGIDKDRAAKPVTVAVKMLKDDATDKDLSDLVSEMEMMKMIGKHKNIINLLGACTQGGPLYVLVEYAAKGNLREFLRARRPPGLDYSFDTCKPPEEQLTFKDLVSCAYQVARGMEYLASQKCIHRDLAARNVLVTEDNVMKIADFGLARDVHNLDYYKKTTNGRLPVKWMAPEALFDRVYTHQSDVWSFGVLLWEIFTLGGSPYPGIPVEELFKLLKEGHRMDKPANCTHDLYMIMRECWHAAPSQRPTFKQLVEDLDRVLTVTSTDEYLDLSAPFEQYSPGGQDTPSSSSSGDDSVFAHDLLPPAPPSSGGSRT
Chain of Vascular endothelial growth factor receptor 2 (P35968 whole entry, the tested form may be a part): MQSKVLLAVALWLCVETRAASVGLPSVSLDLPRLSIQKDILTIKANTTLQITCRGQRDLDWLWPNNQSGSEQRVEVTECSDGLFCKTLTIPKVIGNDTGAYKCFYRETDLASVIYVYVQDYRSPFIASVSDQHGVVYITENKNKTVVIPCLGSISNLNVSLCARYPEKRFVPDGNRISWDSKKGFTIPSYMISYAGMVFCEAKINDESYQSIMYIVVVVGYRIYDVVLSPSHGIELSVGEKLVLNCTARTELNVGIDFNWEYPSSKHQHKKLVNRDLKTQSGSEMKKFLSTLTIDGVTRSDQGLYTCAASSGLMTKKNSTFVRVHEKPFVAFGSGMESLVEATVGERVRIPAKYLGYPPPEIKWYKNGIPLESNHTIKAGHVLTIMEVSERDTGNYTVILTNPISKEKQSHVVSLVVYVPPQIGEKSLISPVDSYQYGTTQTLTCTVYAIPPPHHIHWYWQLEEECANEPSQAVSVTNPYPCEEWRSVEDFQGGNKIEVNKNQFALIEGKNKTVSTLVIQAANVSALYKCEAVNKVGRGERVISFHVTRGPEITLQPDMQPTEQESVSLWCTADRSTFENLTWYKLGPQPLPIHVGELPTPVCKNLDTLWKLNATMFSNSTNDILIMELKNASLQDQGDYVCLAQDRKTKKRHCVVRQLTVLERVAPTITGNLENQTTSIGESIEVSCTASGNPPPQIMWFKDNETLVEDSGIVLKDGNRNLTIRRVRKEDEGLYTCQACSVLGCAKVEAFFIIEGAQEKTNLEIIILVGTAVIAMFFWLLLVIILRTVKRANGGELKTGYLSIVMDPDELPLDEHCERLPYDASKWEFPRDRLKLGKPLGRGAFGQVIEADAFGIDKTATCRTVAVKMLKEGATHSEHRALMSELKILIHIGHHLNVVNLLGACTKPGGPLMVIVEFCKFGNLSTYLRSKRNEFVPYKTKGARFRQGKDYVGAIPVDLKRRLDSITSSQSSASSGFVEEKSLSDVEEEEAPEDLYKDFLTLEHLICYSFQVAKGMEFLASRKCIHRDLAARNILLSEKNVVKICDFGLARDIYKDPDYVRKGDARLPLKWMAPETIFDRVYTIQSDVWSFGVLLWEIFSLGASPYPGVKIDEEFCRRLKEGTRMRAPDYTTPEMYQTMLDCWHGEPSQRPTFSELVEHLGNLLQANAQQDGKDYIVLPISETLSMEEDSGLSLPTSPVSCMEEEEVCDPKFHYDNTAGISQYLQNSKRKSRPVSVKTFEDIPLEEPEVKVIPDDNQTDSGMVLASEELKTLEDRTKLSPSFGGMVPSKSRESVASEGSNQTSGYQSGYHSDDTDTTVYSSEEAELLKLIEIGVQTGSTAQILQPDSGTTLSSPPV

In the case of `Nc1ccc2nccnc2c1`, the IC50 – broadly, the concentration needed to halve the response being measured – in assay [1] came out at 120 µM; in assay [2] it was 140 µM.
The like results for `COc1cc(Nc2ccc3ncc(-c4cnn(C)c4)nc3c2)cc(OC)c1` were, in that order, 0.012 µM and 0.56 µM.
The matching figures for `Cn1cc(-c2cnc3ccc(Cl)cc3n2)cn1`: 6.5 µM and 0.46 µM.
Regarding `COc1ccc(CNc2ccc3ncc(-c4cnn(C)c4)nc3c2)c(OC)c1`, the half-maximal inhibitory concentration (IC50) in assay [1] is 0.33 µM; in assay [2], 5.5 µM. For the same compound, the Ratio IC50 in the assay filed under Homo sapiens was 15.
